Assay [1] concerns the target T1, α2A adrenergic receptor (α2AAR) (Mus musculus, UniProt Q01338).
T1 sequence (Q01338 1-465): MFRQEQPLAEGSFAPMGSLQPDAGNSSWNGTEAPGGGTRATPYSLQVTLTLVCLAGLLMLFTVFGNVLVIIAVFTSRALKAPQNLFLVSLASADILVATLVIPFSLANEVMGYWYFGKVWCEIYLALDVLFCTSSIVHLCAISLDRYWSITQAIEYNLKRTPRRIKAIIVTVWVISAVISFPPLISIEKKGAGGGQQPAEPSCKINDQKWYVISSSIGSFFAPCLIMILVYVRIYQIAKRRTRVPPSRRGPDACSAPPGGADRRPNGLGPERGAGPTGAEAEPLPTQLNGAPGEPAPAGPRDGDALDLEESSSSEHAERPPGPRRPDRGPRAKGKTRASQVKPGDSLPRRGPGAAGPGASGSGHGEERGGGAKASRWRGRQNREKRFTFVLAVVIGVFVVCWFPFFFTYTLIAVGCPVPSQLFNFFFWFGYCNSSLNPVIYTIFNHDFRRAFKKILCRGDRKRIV
As to the kind of experiment: competition radioligand binding with 3H-RX821002.

Assay [2] has as its target T1, α2A adrenergic receptor (α2AAR). As to the kind of experiment: radioligand of the competition binding assay.
Assay [3] has the same target. As to the kind of experiment: […]GTPγS binding, […] NE, nearly two-fold induction. In kind it is cell-based. On the technique in general: Binding of GTPγS marks nucleotide exchange on a G protein.

The Ki is a dissociation constant, usually derived from enzyme kinetics or from competition with a known ligand. A low value points to tighter binding. As for `CN(C)CCCN1c2ccccc2CCc2ccccc21` [IMI, imipramine], the Ki in assay [1] is 5.07 µM.
As to `COC1(C2=NCCN2)COc2ccccc2O1` (centres unmarked) [RX821002], the “radioligand of the competition binding assay” value in assay [2] is “the radioligand was a ^3H-labeled form of the α2AR antagonist RX821002”.
For the compound `NC[C@H](O)c1ccc(O)c(O)c1` [NE, norepinephrine], in assay [3], the “[35S]GTPγS binding, 10 μM NE, nearly two-fold induction” value is listed as “G protein coupling response by α2AARs is seen only in response the endogenous agonist NE, which drives a nearly two-fold induction”.
`CN(C)CCC=C1c2ccccc2CCc2ccccc21` [AMI, amitriptyline] yielded a Ki in assay [1] of 0.33 µM.
`CN(C)CCC[C@@]1(c2ccc(F)cc2)OCc2cc(C#N)ccc21` [ESC, escitalopram] yielded a Ki in assay [1] of 79.4 µM.
